Consider 61 compounds from patent US20080090805A1, “CB-1 MODULATING COMPOUNDS AND THEIR USE” (ACADIA PHARMACEUTICALS INC., priority 2005, published 2008).

For this assay, the target named is CB1 (mutant) (Homo sapiens, UniProt P21554). Briefly: R-SAT functional receptor assay, CB1 (mutant, truncated after amino acid 417). The format is cell-based. As to conditions: R-SAT CB1; for IC50: receptor form (mutant or wild-type) not stated; for Emax / % Inhibition: receptor form not stated, relative to SR141716 (100%); for Emax: read-out: % Inhibition.
Setting [1] is: Appendix A, read-out: pIC50 (converted).

Molecules are shown by their SMILES. Where two headings read alike, the source gives them in different places.

Sequence of CB1 (mutant) (P21554 1-417, change not shown): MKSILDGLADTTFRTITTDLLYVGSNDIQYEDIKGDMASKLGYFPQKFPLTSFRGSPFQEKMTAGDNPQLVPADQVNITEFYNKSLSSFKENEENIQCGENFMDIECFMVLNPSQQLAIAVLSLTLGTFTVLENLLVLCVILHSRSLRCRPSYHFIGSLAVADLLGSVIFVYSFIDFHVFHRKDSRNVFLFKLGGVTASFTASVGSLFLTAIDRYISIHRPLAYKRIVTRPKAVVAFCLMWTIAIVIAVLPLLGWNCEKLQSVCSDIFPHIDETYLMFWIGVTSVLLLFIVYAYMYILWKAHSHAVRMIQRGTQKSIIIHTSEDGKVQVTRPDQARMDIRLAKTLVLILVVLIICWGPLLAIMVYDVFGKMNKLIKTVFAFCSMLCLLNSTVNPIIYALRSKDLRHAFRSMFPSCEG

In the case of `CCCC1=Nc2cc(C(=O)NCCCN3CCOCC3)ccc2Sc2ccccc21`, the IC50 under setting [1] is 316 nM. Also, the Emax (Appendix A) was 98%. For `O=C(NCCC(F)(F)F)c1ccc2c(c1)N=C(c1ccc(Cl)cc1F)c1ccccc1S2` [drawing 667] the same measures were 6.31 nM and 100%. As for `O=C(NN1CCCCC1)c1ccc2c(c1)N=C(c1cccc(Br)c1)c1ccccc1S2` [drawing 723], the Emax (Appendix A) was determined as 92%. Also, the IC50 (pIC50, Appendix A) is 7.94 nM. `O=C(NCc1ccccc1Br)c1ccc2c(c1)N=C(c1ccc(Cl)cc1)c1ccccc1S2` [drawing 608]: the IC50 under setting [1] is 50.1 nM. For the setting “Appendix A”, the Emax came to 94%. Regarding `O=C(NCc1ccccn1)c1ccc2c(c1)N=C(c1ccc(F)cc1)c1ccccc1S2`, the IC50 under setting [1] was 63.1 nM. In addition, for the setting “Appendix A”, the Emax was 90%.

Turning to `CCCC1=Nc2cc(C(=O)NN3CCCCC3)ccc2Sc2ccccc21`, under setting [1], the IC50 was 158 nM. The Emax (Appendix A) was 80%. `COc1cccc(C2=Nc3cc(C(=O)NC4CCC(F)(F)CC4)ccc3Sc3ccccc32)n1` [drawing 653]: the Emax (Appendix A) was 104%. The compound also gave an IC50 (pIC50, Appendix A) of 6.31 nM. Regarding `CCCC1=Nc2cc(C(=O)NCCCN3CCN(c4ccccc4F)CC3)ccc2Sc2ccccc21`, the IC50 under setting [1] is 398 nM. Further, the Emax (Appendix A) turned out to be 120%. With `CC(C)CCNC(=O)c1ccc2c(c1)N=C(c1ccc(F)cc1)c1ccccc1S2` [drawing 771], under “Appendix A”, the Emax amounted to 107%. The compound further gave an IC50 (pIC50, Appendix A) of 10 nM. Turning to `CCCC1=Nc2cc(C(=O)NCc3ccccc3Cl)ccc2Sc2ccccc21` [drawing 791], the IC50 under setting [1] was 10 nM. Further, the Emax (Appendix A) is 105%. As for `Cc1ccc(CNC(=O)c2ccc3c(c2)N=C(c2cccc(Cl)c2)c2ccccc2S3)o1` [drawing 623], under setting [1], the IC50 is 5.01 nM. For the same compound, under “Appendix A”, the Emax was 74%. The matching figures for `O=C(NCCc1ccccn1)c1ccc2c(c1)N=C(c1cccc(F)c1)c1ccccc1S2`: 50.1 nM and 91%. The % Inhibition is the drop in the measured response relative to a control, in per cent. With `O=C(NC1CCCCC1)c1ccc2c(c1)N=C(c1ccc(F)cc1)c1ccccc1S2` [drawing 951], the IC50 under setting [1] was 20 nM. Also, the “% Inhibition” value (Appendix A) was determined as 108%. As to `CCCC1=Nc2cc(C(=O)NCCN(CC(C)C)CC(C)C)ccc2Sc2ccccc21`, under setting [1], the IC50 is 63.1 nM. Also, the Emax (Appendix A) turned out to be 105%.

With `Cc1ccsc1C1=Nc2cc(C(=O)NCc3cccs3)ccc2Sc2ccccc21` [drawing 685], under setting [1], the IC50 was 6.31 nM. Moreover, the Emax (Appendix A) came out at 114%. As to `CCCC1=Nc2cc(C(=O)NCCN(C)C3CCCCC3)ccc2Sc2ccccc21`, the IC50 under setting [1] is 2000 nM. In addition, the Emax (Appendix A) stood at 123%. On to `O=C(NN1CCCCCC1)c1ccc2c(c1)N=C(c1ccc(Cl)cc1)c1ccccc1S2` [drawing 1041], for which, under setting [1], the IC50 is 31.6 nM. Moreover, the “% Inhibition” value (Appendix A) was 96%. Regarding `CCONC(=O)c1ccc2c(c1)N=C(c1ccc(Cl)cc1F)c1ccccc1S2`, the IC50 under setting [1] was 200 nM. Further, the Emax (Appendix A) is 87%.

Consider `N#Cc1ccc(C2=Nc3cc(C(=O)NNCc4ccccc4)ccc3Sc3ccccc32)cc1` [drawing 1174], for which the Emax (Appendix A) was determined as 58%. For the compound `CCCC1=NC2=C(CCC(C(=O)NCCN(CC)CCNc3cc(Cl)ccc3C)=C2)Sc2ccccc21`, under setting [1], the IC50 was 158 nM. Besides, the Emax (Appendix A) was 113%. For `CC(CNC(=O)c1ccc2c(c1)N=C(c1ccccc1F)c1ccccc1S2)c1ccccc1` (centres unmarked) [drawing 909] the same measures were 15.8 nM and 110%.

Take `O=C(NCc1cccc(Cl)c1)c1ccc2c(c1)N=C(c1ccc(F)cc1)c1ccccc1S2` [drawing 701]: the IC50 under setting [1] was 7.94 nM. For the same compound, the Emax (Appendix A) was 103%. Take `O=C(NCc1ccco1)c1ccc2c(c1)N=C(c1ccccc1Cl)c1ccccc1S2`: the Emax (Appendix A) came to 95%.

In the case of `O=C(NCc1ccccc1)c1ccc2c(c1)N=C(c1ccc(F)cc1)c1ccccc1S2` [drawing 759], the IC50 under setting [1] was 10 nM. For the same compound, under “Appendix A”, the Emax amounted to 96%. The matching figures for `O=C(NCc1ccco1)c1ccc2c(c1)N=C(c1ccc(Cl)cc1)c1ccccc1S2` [drawing 753]: 7.94 nM and 94%.

On to `O=C(NCCc1ccc(Cl)cc1)c1ccc2c(c1)N=C(c1ccc(Cl)cc1)c1ccccc1S2` [drawing 631], for which, under setting [1], the IC50 is 5.01 nM. Besides, the Emax (Appendix A) amounted to 104%. As for `O=C(NN1CCCCC1)c1ccc2c(c1)N=C(c1ccc(Cl)c(Cl)c1)c1ccccc1S2` [drawing 989], under setting [1], the IC50 was 25.1 nM. In addition, the Emax (Appendix A) was 105%. In the case of `CCCCN(C)C(=O)c1ccc2c(c1)N=C(c1ccccn1)c1ccccc1S2`, the IC50 under setting [1] was 1000 nM. Also, the Emax (Appendix A) stood at 57%. For `O=C(NN1CCCCC1)c1ccc2c(c1)N=C(c1ccc(F)c(Cl)c1)c1ccccc1S2` [drawing 817] the same measures were 12.6 nM and 108%. For `O=C(NN1CCCCC1)c1ccc2c(c1)N=C(c1ccc(Cl)c(F)c1)c1ccccc1S2` [drawing 991] the same measures were 25.1 nM and 110%. For `CCOC(=O)c1ccc(C2=Nc3cc(C(=O)NCc4ccncc4)ccc3Sc3ccccc32)cc1` the same measures were 501 nM and 69%.

`O=C(NCCCc1ccccc1)c1ccc2c(c1)N=C(c1ccc(Cl)cc1)c1ccccc1S2` [drawing 645]: the Emax (Appendix A) is 106%. This compound had an IC50 (pIC50, Appendix A) of 5.01 nM. For `CCCC1=Nc2cc(C(=O)NC3CCC(C)CC3)ccc2Sc2ccccc21` (centres unmarked) [drawing 975] the same measures were 114% and 20 nM. As to `O=C(NN1CCCCC1)c1ccc2c(c1)N=C(c1ccccc1)c1ccccc1O2`, the IC50 under setting [1] is 158 nM. Moreover, the Emax (Appendix A) was 57%. With `CCCC1=Nc2cc(C(=O)NCCCN3CC(C)CC(C)C3)ccc2Sc2ccccc21` (centres unmarked), the IC50 under setting [1] is 631 nM. Further, the Emax (Appendix A) stood at 136%.

On to `CCCCC1=Nc2cc(C(=O)N3CCN(c4ccc(C)cc4C)CC3)ccc2Sc2ccccc21`, for which the IC50 under setting [1] is 316 nM. Besides, the Emax (Appendix A) was found to be 104%. Consider `Cc1ccsc1C1=Nc2cc(C(=O)NN3[C@H](C)CCC[C@@H]3C)ccc2Sc2ccccc21` [drawing 772], for which the Emax (Appendix A) worked out at 89%. Also, where the note is “pIC50, Appendix A”, the IC50 was 100 nM. With `CC(C)CCNC(=O)c1ccc2c(c1)N=C(c1ccccc1F)c1ccccc1S2` [drawing 1067], the IC50 under setting [1] is 31.6 nM. Moreover, the Emax (Appendix A) was found to be 117%. For `O=C(c1ccc2c(c1)N=C(C1CCCCC1)c1ccccc1S2)N1CCCCC1`, the Emax (Appendix A) was found to be 26%. `O=C(NCc1ccccc1Cl)c1ccc2c(c1)N=C(C1CCCCC1)c1ccccc1S2` [drawing 1059]: the IC50 under setting [1] is 31.6 nM. Besides, where the note is “Appendix A”, the Emax was 91%. As for `O=C(NCc1ccco1)c1ccc2c(c1)N=C(c1ccccc1F)c1ccccc1S2` [drawing 859], the Emax (Appendix A) was found to be 100%. In addition, the IC50 (pIC50, Appendix A) is 12.6 nM.

`CCCC1=Nc2cc(C(=O)NCCc3ccc(Cl)cc3)ccc2Sc2ccccc21` [drawing 1003]: the Emax (Appendix A) came out at 110%. Besides, the IC50 (pIC50, Appendix A) was 25.1 nM. As to `Cc1cccc(C2=Nc3cc(C(=O)NCCC(F)(F)F)ccc3Sc3ccccc32)n1` [drawing 815], the IC50 under setting [1] was 12.6 nM. Also, the Emax (Appendix A) turned out to be 93%. With `Cc1cccnc1C1=Nc2cc(C(=O)NCC(C)C)ccc2Sc2ccccc21`, the Emax (Appendix A) came out at 87%. `Cc1cccc(C2=Nc3cc(C(=O)NC4CCC(F)(F)CC4)ccc3Sc3ccccc32)n1` [drawing 869]: the IC50 under setting [1] is 15.8 nM. Besides, where the note is “Appendix A”, the Emax was 74%. Consider `CCCC1=Nc2cc(C(=O)NCCN3CCOCC3)ccc2Sc2ccccc21`, for which, where the note is “Appendix A”, the Emax turned out to be 98%. Consider `CCCC1=Nc2cc(C(=O)NCCN3CCCC3)ccc2Sc2ccccc21`, for which the IC50 under setting [1] is 3160 nM. Moreover, the Emax (Appendix A) is 138%. For the compound `O=C(NN1CCCCCC1)c1ccc2c(c1)N=C(c1cccc(Cl)c1)c1ccccc1S2` [drawing 721], the IC50 under setting [1] was 7.94 nM. Also, the “% Inhibition” value (Appendix A) turned out to be 105%.

Turning to `O=C(NCc1ccccc1Cl)c1ccc2c(c1)N=C(c1ccc(F)cc1)c1ccccc1S2` [drawing 1121], the IC50 under setting [1] is 39.8 nM. For the same compound, the Emax (Appendix A) was found to be 89%. The matching figures for `CCOCCNC(=O)c1ccc2c(c1)N=C(c1ccc(Cl)cc1)c1ccccc1S2` [drawing 604]: 50.1 nM and 92%. In the case of `COCCNC(=O)c1ccc2c(c1)N=C(c1ccccc1F)c1ccccc1S2`, the IC50 under setting [1] is 100 nM. The Emax (Appendix A) turned out to be 99%.

In the case of `CCONC(=O)c1ccc2c(c1)N=C(c1ccccc1F)c1ccccc1S2`, under setting [1], the IC50 is 398 nM. Also, the Emax (Appendix A) was 73%.

`O=C(NCc1cccs1)c1ccc2c(c1)N=C(c1ccc(Cl)cc1)c1ccccc1S2` [drawing 751]: the IC50 under setting [1] was 7.94 nM. Further, the Emax (Appendix A) was 107%.

For `CC(CNC(=O)c1ccc2c(c1)N=C(c1cccc(Cl)c1)c1cc(F)ccc1S2)c1ccccc1` (centres unmarked) [drawing 879], the IC50 under setting [1] is 15.8 nM. The Emax (Appendix A) stood at 113%. For the compound `CCCC1=Nc2cc(C(=O)NCCCN3CCC(Cc4ccccc4)CC3)ccc2Sc2ccccc21`, the Emax (Appendix A) stood at 115%.

On to `CCCCNC(=O)c1cc2c(cc1O)Sc1ccccc1C(c1ccc(Cl)cc1)=N2` [drawing 552], for which the IC50 under setting [1] is 50.1 nM. Moreover, the Emax (Appendix A) was determined as 95%. For `O=C(NCc1cccs1)c1ccc2c(c1)N=C(c1cccc(F)c1)c1ccccc1S2` [drawing 595] the same measures were 3.16 nM and 100%. For `CCCC1=Nc2cc(C(=O)NC(C)c3ccccc3)ccc2Sc2ccccc21` (centres unmarked) the same measures were 63.1 nM and 97%. For `O=C(NN1CCCC1)c1ccc2c(c1)N=C(c1ccc(Cl)cc1)c1ccccc1S2` [drawing 698] the same measures were 79.4 nM and 100%. Consider `CCOC(=O)N1CCC(NC(=O)c2ccc3c(c2)N=C(c2ccc(Cl)cc2)c2ccccc2S3)CC1` [drawing 676], for which, under setting [1], the IC50 was 63.1 nM. For the same compound, the “% Inhibition” value (Appendix A) was 105%.

On to `CCCC1=Nc2cc(C(=O)NCCc3ccc(SC)cc3)ccc2Sc2ccccc21`, for which the IC50 under setting [1] is 251 nM. Moreover, the Emax (Appendix A) came to 103%.
